Data published in ChEMBL document CHEMBL4725253, “Discovery of quinoline-based irreversible BTK inhibitors” (Bioorg Med Chem Lett, 2020).

Tests used:
[1] = target: Epidermal growth factor receptor (Homo sapiens, UniProt P00533); experiment: Inhibition of EGFR (unknown origin) expressed in baculovirus system using fluorescein labeled PDGFR-tide substrate peptide preincubated for 60 mins followed by ATP addition and measured after 60 mins by IMAP assay
[2] = target: T1, Tyrosine-protein kinase Tec (Homo sapiens, UniProt P42680); experiment: Inhibition of His-tagged recombinant human TEC expressed in baculovirus expression system preincubated for 1 hr by Z'lyte assay
T1 sequence (P42680 whole entry): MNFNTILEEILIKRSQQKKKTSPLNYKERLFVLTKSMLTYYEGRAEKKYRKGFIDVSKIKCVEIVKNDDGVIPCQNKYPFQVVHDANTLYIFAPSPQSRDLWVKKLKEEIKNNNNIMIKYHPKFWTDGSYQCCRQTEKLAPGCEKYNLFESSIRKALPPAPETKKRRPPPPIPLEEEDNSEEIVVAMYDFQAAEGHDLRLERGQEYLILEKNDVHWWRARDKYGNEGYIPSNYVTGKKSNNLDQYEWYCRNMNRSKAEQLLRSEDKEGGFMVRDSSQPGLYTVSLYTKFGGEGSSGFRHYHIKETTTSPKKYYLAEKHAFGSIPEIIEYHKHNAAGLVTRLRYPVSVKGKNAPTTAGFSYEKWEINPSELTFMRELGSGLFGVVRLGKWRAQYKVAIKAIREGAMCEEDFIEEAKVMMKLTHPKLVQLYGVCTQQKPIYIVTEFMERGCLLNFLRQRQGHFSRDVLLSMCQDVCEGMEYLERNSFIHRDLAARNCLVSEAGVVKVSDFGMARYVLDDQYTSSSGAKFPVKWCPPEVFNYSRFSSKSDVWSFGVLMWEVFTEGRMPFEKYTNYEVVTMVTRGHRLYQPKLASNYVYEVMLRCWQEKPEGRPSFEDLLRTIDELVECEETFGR

[3] = Inhibition of anti-human alphaIgM-stimulated MIP1beta production in human Ramos B cells preincubated for 1 hr followed by anti-human IgM stimulation for 6 hrs by ELISA; format: functional, cell-based
[4] = tested on: Blood; experiment: Inhibition of mouse anti-human anti-IgD-stimulated CD69 cell surface expression in human whole blood preincubated for 2 hrs followed by anti-human anti-IgD stimulation for 18 hrs by flow cytometric analysis; format: functional, tissue-based
[5] = target: T2, Tyrosine-protein kinase TXK (Homo sapiens, UniProt P42681); experiment: Inhibition of recombinant human N-terminal GST-tagged TXK (260 to 527 residues) expressed in baculovirus expression system using tyrosine-6 peptide as substrate preincubated for 1 hr in presence of ATP by Z'-LYTE assay
T2 sequence (P42681 whole entry): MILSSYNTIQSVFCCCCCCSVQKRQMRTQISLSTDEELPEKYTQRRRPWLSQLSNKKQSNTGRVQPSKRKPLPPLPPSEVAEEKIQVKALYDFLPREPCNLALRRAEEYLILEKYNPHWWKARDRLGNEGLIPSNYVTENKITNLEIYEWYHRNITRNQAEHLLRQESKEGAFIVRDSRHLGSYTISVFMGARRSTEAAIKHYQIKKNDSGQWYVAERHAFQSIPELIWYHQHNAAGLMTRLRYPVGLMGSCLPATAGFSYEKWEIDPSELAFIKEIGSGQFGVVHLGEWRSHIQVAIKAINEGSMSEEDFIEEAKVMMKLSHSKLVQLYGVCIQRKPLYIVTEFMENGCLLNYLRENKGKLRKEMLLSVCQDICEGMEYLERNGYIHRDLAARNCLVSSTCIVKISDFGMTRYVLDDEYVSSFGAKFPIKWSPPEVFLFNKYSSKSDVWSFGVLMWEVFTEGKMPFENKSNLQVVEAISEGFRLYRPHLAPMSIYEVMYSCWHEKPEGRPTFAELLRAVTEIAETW

[6] = target: Receptor tyrosine-protein kinase erbB-4 (Homo sapiens, UniProt Q15303); experiment: Inhibition of recombinant human N-terminal GST-tagged ERBB4 catalytic domain (708 to 993 residues) expressed in baculovirus expression system using tyrosine-1 peptide as substrate preincubated for 1 hr in presence of ATP by Z'-LYTE assay
Chain of Receptor tyrosine-protein kinase erbB-4 (Q15303 whole entry, the tested form may be a part): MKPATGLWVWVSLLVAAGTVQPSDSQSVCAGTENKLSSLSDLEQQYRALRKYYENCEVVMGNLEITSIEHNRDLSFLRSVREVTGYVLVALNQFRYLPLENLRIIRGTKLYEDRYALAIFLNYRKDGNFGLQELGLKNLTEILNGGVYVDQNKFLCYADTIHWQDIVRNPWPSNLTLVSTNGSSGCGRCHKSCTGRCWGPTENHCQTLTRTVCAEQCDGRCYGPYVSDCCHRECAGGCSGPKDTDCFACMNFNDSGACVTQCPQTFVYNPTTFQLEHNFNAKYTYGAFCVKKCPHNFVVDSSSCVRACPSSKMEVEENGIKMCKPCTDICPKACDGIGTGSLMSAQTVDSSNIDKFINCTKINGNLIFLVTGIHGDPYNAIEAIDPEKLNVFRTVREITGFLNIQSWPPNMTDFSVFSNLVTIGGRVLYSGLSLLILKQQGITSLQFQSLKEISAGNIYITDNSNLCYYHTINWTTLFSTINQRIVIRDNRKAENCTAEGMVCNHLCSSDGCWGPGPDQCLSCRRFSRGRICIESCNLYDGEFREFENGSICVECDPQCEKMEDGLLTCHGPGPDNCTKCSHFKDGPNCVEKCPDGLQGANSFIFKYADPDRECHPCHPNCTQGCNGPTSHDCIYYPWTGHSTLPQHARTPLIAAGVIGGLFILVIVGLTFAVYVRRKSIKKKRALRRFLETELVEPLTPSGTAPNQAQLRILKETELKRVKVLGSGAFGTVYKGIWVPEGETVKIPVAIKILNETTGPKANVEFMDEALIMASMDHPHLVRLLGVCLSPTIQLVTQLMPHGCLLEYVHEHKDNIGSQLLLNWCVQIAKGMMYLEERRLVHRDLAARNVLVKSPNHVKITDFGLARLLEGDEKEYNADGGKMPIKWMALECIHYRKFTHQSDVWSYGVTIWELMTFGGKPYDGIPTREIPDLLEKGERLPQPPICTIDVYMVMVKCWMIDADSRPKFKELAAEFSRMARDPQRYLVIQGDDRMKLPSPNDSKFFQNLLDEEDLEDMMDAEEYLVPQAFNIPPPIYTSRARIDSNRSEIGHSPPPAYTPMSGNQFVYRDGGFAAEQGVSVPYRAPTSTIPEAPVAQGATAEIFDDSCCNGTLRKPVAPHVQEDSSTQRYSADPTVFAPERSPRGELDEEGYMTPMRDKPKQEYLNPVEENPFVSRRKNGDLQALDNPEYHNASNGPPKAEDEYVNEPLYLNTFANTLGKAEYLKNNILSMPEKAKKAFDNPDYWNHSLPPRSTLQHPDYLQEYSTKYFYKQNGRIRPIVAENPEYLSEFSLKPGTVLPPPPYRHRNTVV

[7] = target: Tyrosine-protein kinase BTK (Homo sapiens, UniProt Q06187); experiment: Inhibition of human recombinant full length N-terminal His6-tagged BTK expressed in baculovirus infected Sf9 cells using fluorescein labeled Blk/Lyntide substrate preincubated with enzyme for 60 mins followed by further incubation with substrate and ATP for 120 mins by IMAP assay
Chain of Tyrosine-protein kinase BTK (Q06187 whole entry): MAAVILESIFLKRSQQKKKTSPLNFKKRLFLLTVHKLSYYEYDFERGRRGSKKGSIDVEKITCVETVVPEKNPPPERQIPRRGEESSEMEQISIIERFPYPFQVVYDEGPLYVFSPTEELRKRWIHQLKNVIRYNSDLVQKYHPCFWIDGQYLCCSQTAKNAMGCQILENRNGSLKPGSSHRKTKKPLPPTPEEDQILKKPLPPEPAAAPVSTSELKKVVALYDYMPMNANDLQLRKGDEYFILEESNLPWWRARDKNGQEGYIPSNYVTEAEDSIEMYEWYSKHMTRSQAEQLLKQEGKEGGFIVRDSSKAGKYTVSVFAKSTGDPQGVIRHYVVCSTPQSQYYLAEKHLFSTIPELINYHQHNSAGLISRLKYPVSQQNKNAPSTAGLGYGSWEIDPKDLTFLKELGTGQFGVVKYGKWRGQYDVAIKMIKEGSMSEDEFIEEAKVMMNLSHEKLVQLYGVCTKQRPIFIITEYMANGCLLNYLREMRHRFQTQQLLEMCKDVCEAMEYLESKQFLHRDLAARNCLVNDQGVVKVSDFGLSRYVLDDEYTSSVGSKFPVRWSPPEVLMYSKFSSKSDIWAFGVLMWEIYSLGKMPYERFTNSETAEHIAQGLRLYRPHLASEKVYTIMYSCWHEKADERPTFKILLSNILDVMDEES

[8] = Inhibition of goat anti-human IgM F(ab')-stimulated CD69 cell surface expression in human PBMC preincubated for 2 hrs followed by anti-human IgM stimulation for 18 hrs by flow cytometric analysis; format: functional, tissue-based
[9] = target: T3, Tyrosine-protein kinase ITK/TSK (Homo sapiens, UniProt Q08881); experiment: Inhibition of recombinant full length human GST-tagged ITK expressed in baculovirus expression system using tyrosine-1 peptide as substrate preincubated for 1 hr in presence of ATP by Z'-LYTE assay
T3 sequence (Q08881 whole entry): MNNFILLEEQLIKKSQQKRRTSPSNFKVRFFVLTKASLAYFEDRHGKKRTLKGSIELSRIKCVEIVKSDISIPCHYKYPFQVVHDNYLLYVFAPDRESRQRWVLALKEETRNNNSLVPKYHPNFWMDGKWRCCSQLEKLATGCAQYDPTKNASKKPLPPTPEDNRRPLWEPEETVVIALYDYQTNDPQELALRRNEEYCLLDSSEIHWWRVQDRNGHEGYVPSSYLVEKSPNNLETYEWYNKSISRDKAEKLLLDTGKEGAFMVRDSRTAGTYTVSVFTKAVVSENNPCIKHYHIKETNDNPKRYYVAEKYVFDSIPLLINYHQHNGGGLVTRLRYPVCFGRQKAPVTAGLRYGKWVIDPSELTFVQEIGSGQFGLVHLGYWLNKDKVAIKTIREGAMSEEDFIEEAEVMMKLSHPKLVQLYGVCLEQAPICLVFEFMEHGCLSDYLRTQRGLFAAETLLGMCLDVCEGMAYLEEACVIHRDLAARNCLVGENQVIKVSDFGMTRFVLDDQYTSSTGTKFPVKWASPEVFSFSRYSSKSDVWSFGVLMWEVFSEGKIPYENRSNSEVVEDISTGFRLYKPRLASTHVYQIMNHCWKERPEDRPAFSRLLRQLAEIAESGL

[10] = target: Receptor tyrosine-protein kinase erbB-2 (Homo sapiens, UniProt P04626); experiment: Inhibition of His-tagged human recombinant ERBB2 (676 to 1255 residues) expressed in baculovirus expression system using Tyr 06 as substrate preincubated for 1 hr in presence of ATP by Z'-LYTE assay
Chain of Receptor tyrosine-protein kinase erbB-2 (P04626 whole entry, the tested form may be a part): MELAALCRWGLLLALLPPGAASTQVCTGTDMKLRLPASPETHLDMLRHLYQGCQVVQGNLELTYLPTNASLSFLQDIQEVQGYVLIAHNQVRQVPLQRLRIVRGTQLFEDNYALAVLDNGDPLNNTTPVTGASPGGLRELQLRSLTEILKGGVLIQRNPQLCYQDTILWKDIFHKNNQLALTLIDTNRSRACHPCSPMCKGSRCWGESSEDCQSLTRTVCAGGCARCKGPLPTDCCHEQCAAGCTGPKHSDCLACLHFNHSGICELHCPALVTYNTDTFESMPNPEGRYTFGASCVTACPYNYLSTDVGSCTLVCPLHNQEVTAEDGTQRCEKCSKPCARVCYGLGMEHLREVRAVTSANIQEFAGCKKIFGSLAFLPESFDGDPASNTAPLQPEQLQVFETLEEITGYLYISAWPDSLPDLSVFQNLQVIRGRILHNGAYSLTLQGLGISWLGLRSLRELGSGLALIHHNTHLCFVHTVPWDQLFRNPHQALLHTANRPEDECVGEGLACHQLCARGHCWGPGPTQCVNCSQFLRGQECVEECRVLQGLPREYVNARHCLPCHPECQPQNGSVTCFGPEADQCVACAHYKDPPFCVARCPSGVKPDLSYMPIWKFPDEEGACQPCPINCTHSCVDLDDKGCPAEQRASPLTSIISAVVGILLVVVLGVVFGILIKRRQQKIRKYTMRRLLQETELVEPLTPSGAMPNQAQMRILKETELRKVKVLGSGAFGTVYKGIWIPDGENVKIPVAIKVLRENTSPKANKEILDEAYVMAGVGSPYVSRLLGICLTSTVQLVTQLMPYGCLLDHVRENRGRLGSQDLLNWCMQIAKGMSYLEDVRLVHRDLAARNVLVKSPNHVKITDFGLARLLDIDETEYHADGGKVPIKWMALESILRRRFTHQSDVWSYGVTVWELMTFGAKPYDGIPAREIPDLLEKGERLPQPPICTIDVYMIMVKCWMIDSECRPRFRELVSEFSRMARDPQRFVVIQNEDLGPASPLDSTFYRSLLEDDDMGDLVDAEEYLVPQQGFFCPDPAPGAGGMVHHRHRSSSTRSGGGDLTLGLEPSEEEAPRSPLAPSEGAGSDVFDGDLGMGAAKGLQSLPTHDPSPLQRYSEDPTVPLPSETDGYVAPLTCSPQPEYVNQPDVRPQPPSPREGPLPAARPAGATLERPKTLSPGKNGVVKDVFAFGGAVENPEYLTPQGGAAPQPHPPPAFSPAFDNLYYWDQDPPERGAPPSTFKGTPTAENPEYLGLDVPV

[11] = target: Tyrosine-protein kinase Blk (Homo sapiens, UniProt P51451); experiment: Inhibition of recombinant full length human His-tagged BLK cytoplasmic domain expressed in baculovirus expression system using tyrosine-1 peptide as substrate preincubated for 1 hr in presence of ATP by Z'-LYTE assay
Chain of Tyrosine-protein kinase Blk (P51451 whole entry, the tested form may be a part): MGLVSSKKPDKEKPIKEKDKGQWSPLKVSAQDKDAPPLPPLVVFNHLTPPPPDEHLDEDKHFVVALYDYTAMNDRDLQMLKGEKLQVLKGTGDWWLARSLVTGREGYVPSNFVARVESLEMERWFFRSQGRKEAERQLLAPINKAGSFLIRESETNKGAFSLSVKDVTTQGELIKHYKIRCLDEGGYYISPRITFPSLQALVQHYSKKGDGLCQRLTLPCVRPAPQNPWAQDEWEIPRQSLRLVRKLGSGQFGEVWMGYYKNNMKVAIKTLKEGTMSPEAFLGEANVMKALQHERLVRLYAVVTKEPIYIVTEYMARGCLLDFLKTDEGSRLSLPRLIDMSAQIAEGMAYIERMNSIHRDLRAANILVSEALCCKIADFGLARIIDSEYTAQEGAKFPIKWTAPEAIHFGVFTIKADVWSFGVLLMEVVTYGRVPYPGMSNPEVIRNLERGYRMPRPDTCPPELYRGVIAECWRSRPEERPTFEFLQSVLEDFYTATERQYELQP

Chain of Epidermal growth factor receptor (P00533 whole entry): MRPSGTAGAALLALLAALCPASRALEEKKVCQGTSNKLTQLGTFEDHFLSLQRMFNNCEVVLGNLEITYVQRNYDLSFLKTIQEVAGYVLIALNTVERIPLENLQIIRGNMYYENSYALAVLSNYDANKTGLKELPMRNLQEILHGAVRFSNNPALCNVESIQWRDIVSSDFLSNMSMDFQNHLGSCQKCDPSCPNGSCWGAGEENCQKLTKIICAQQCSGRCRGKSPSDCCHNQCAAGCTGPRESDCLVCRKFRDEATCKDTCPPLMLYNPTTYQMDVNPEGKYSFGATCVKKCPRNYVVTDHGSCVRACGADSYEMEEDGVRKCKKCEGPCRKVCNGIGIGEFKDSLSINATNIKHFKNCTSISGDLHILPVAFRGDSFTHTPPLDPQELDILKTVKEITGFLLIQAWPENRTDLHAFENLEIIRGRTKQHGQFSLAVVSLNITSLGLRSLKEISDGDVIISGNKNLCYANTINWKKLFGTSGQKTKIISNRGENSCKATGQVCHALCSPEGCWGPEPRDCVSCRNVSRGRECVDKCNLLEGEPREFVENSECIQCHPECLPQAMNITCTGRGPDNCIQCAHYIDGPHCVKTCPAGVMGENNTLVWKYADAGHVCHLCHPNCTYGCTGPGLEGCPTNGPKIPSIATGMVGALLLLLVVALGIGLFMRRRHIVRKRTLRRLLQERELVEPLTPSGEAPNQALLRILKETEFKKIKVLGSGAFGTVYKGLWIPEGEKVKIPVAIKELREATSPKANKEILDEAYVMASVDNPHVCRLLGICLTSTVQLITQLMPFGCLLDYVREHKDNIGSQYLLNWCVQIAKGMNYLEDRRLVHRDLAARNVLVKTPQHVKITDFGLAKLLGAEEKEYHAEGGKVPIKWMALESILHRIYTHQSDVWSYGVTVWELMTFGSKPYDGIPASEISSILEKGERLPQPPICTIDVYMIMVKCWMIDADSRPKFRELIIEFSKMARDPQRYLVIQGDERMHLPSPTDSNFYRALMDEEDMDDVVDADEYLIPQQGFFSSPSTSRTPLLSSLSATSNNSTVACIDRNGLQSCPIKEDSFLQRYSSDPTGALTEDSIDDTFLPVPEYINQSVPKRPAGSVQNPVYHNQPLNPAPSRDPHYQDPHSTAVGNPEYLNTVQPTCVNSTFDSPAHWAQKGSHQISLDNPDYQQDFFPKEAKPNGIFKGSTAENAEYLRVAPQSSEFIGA

SMILES	IC50 [1]	IC50 [2]	EC50 [3]	EC50 [4]	IC50 [5]	IC50 [6]	IC50 [7]	EC50 [8]	IC50 [9]	IC50 [10]	IC50 [11]
CC#CC(=O)Nc1cc2c(Oc3ccc(C(=O)Nc4ccccn4)cc3)ccnc2cc1OCCN1CCOCC1	> 1000 nM	219 nM	15 nM	74 nM	229 nM	37 nM	0.54 nM	4.1 nM	> 1000 nM	> 1000 nM	72 nM
C=CC(=O)Nc1ccc2nccc(Oc3ccc(C(=O)Nc4cc(CC)ccn4)cc3)c2c1	200 nM	38 nM	22 nM	167 nM	294 nM	16 nM	1.2 nM	15 nM	> 1000 nM	268 nM	21.2 nM
COc1cc2nccc(Oc3ccc(C(=O)Nc4ccccn4)cc3)c2cc1NC(=O)C#CCCN1CCOCC1	33 nM	184 nM	4.1 nM	13 nM	19 nM	901 nM	1.6 nM	1.8 nM	916 nM	41 nM	8.3 nM
